From patent US20250319053A1, “INHIBITORS OF THE PEPTIDYL-PROLYL CIS/TRANS ISOMERASE (PIN1), COMBINATIONS AND USES THEREOF” (DANA-FARBER CANCER INSTITUTE, INC., priority 2021, published 2025)

Test system: WT B6 mice (non-tumor-bearing mice)
Test: Blood test (CBC, liver, renal) of Pin1i-2 treated non-tumor-bearing B6 mice
Assay type: in vivo, mouse
Details: for CBC BA: Normal Range 0-2; for CBC EO: Normal Range 0-3.9; for CBC MO: Normal Range 0-7.5; for CBC WBC: Normal Range 1.8-10.7; for Liver Alb: Normal Range 1.95-4.74; for CBC RBC: Normal Range 6.36-9.42; for CBC NE: Normal Range 6.6-38.9; for CBC Hb: Normal Range 11-15.1; for Renal BUN: Normal Range 17-57.5; for Liver ALT: Normal Range 30-206; for CBC LY: Normal Range 55.8-91.6; for CBC PLT: Normal Range 592-2972; for Renal Cre: Normal Range <0.15
Experimental: Table 1 is a table of blood test results together with body weight of Pin1i−2 treated non-tumor-bearing B6 mice. See also FIG. 1A-FIG. 1G, FIG. 8A-FIG. 8O, and FIG. 9A-9L. WT B6 mice (non-tumor-bearing mice) were treated with vehicle or Pin1i−2 (20, 40, or 60 mg/kg, i.p., daily) for 5 weeks, followed by examining mice body weight or the RBC, Hb, Plate, and kidney and liver function using blood tests at 3 weeks and 5 weeks (n=5).

Compound: CC(C)(C)CN(C(=O)CCl)C1CCS(=O)(=O)C1 (stereo not drawn) [Pin1i−2, sulfopin]
- CBC BA (20 mg/kg i.p. daily, 3 weeks): 0.064%
- CBC EO (20 mg/kg i.p. daily, 3 weeks): 0.204%
- CBC MO (20 mg/kg i.p. daily, 3 weeks): 8.248%
- CBC WBC (20 mg/kg i.p. daily, 3 weeks): 7.508 K/uL
- Liver Alb (20 mg/kg i.p. daily, 3 weeks): 3.375 g/dL
- CBC RBC (20 mg/kg i.p. daily, 3 weeks): 9.424 M/uL
- CBC NE (20 mg/kg i.p. daily, 3 weeks): 6.5%
- CBC Hb (20 mg/kg i.p. daily, 3 weeks): 13.8 g/dL
- Renal BUN (20 mg/kg i.p. daily, 3 weeks): 31 mg/dL
- Liver ALT (20 mg/kg i.p. daily, 3 weeks): 41.5 U/L
- CBC LY (20 mg/kg i.p. daily, 3 weeks): 84.982%
- CBC PLT (20 mg/kg i.p. daily, 3 weeks): 530.4 K/uL
- Renal Cre (20 mg/kg i.p. daily, 3 weeks): <0.15 mg/dL
- CBC BA (20 mg/kg i.p. daily, 5 weeks): 0.044%
- CBC EO (20 mg/kg i.p. daily, 5 weeks): 0.15%
- CBC MO (20 mg/kg i.p. daily, 5 weeks): 9.16%
- CBC WBC (20 mg/kg i.p. daily, 5 weeks): 7.452 K/uL
- Liver Alb (20 mg/kg i.p. daily, 5 weeks): 2.94 g/dL
- CBC RBC (20 mg/kg i.p. daily, 5 weeks): 9.228 M/uL
- CBC NE (20 mg/kg i.p. daily, 5 weeks): 6.134%
- CBC Hb (20 mg/kg i.p. daily, 5 weeks): 13.38 g/dL
- Renal BUN (20 mg/kg i.p. daily, 5 weeks): 30.4 mg/dL
- Liver ALT (20 mg/kg i.p. daily, 5 weeks): 41.4 U/L
- CBC LY (20 mg/kg i.p. daily, 5 weeks): 84.51%
- CBC PLT (20 mg/kg i.p. daily, 5 weeks): 612.6 K/uL
- Renal Cre (20 mg/kg i.p. daily, 5 weeks): <0.15 mg/dL
- CBC BA (40 mg/kg i.p. daily, 3 weeks): 0.056%
- CBC EO (40 mg/kg i.p. daily, 3 weeks): 0.156%
- CBC MO (40 mg/kg i.p. daily, 3 weeks): 8.298%
- CBC WBC (40 mg/kg i.p. daily, 3 weeks): 4.76 K/uL
- Liver Alb (40 mg/kg i.p. daily, 3 weeks): 3.6 g/dL
- CBC RBC (40 mg/kg i.p. daily, 3 weeks): 8.698 M/uL
- CBC NE (40 mg/kg i.p. daily, 3 weeks): 6.97%
- CBC Hb (40 mg/kg i.p. daily, 3 weeks): 12.44 g/dL
- Renal BUN (40 mg/kg i.p. daily, 3 weeks): 28.8 mg/dL
- Liver ALT (40 mg/kg i.p. daily, 3 weeks): 41.67 U/L
- CBC LY (40 mg/kg i.p. daily, 3 weeks): 84.522%
- CBC PLT (40 mg/kg i.p. daily, 3 weeks): 449.2 K/uL
- Renal Cre (40 mg/kg i.p. daily, 3 weeks): <0.15 mg/dL
- CBC BA (40 mg/kg i.p. daily, 5 weeks): 0.092%
- CBC EO (40 mg/kg i.p. daily, 5 weeks): 0.618%
- CBC MO (40 mg/kg i.p. daily, 5 weeks): 9.158%
- CBC WBC (40 mg/kg i.p. daily, 5 weeks): 5.876 K/uL
- Liver Alb (40 mg/kg i.p. daily, 5 weeks): 2.98 g/dL
- CBC RBC (40 mg/kg i.p. daily, 5 weeks): 9.714 M/uL
- CBC NE (40 mg/kg i.p. daily, 5 weeks): 8.926%
- CBC Hb (40 mg/kg i.p. daily, 5 weeks): 13.38 g/dL
- Renal BUN (40 mg/kg i.p. daily, 5 weeks): 26.4 mg/dL
- Liver ALT (40 mg/kg i.p. daily, 5 weeks): 46.2 U/L
- CBC LY (40 mg/kg i.p. daily, 5 weeks): 81.206%
- CBC PLT (40 mg/kg i.p. daily, 5 weeks): 548.8 K/uL
- Renal Cre (40 mg/kg i.p. daily, 5 weeks): <0.15 mg/dL
- CBC BA (60 mg/kg i.p. daily, 3 weeks): 0.078%
- CBC EO (60 mg/kg i.p. daily, 3 weeks): 0.35%
- CBC MO (60 mg/kg i.p. daily, 3 weeks): 9.418%
- CBC WBC (60 mg/kg i.p. daily, 3 weeks): 6.712 K/uL
- Liver Alb (60 mg/kg i.p. daily, 3 weeks): 3.5 g/dL
- CBC RBC (60 mg/kg i.p. daily, 3 weeks): 9.858 M/uL
- CBC NE (60 mg/kg i.p. daily, 3 weeks): 12.606%
- CBC Hb (60 mg/kg i.p. daily, 3 weeks): 14.76 g/dL
- Renal BUN (60 mg/kg i.p. daily, 3 weeks): 25.4 mg/dL
- Liver ALT (60 mg/kg i.p. daily, 3 weeks): 50.5 U/L
- CBC LY (60 mg/kg i.p. daily, 3 weeks): 77.548%
- CBC PLT (60 mg/kg i.p. daily, 3 weeks): 700.8 K/uL
- Renal Cre (60 mg/kg i.p. daily, 3 weeks): <0.15 mg/dL
- CBC BA (60 mg/kg i.p. daily, 5 weeks): 0.016%
- CBC EO (60 mg/kg i.p. daily, 5 weeks): 0.304%
- CBC MO (60 mg/kg i.p. daily, 5 weeks): 10.276%
- CBC WBC (60 mg/kg i.p. daily, 5 weeks): 5.664 K/uL
- Liver Alb (60 mg/kg i.p. daily, 5 weeks): 2.72 g/dL
- CBC RBC (60 mg/kg i.p. daily, 5 weeks): 8.958 M/uL
- CBC NE (60 mg/kg i.p. daily, 5 weeks): 7.656%
- CBC Hb (60 mg/kg i.p. daily, 5 weeks): 12.74 g/dL
- Renal BUN (60 mg/kg i.p. daily, 5 weeks): 22.8 mg/dL
- Liver ALT (60 mg/kg i.p. daily, 5 weeks): 49.2 U/L
- CBC LY (60 mg/kg i.p. daily, 5 weeks): 81.742%
- CBC PLT (60 mg/kg i.p. daily, 5 weeks): 618 K/uL
- Renal Cre (60 mg/kg i.p. daily, 5 weeks): <0.15 mg/dL
